Experimental data from US20250230193A1, “CYCLIC COMPOUND HAVING SELECTIVE KRAS INHIBITORY EFFECT ON HRAS AND NRAS” (CHUGAI SEIYAKU KABUSHIKI KAISHA, priority 2022, published 2025).
Where a SMILES comes first, the peptide text is derived from it. Bridges are numbered along the chain shown (N, C = ends). [ ]: non-standard residue; d: D form. The star is where a group is joined. hPhe(3-Cl-4-CF3) = N[C@@H](CCc1ccc(C(F)(F)F)c(Cl)c1)C(=O)O; NPrPhe(4-CF3) = CCCN[C@@H](Cc1ccc(C(F)(F)F)cc1)C(=O)O; NMeGly(cPent) = CN[C@H](C(=O)O)C1CCCC1; NMeD = CN[C@@H](CC(=O)O)C(=O)O; NMeL = CN[C@@H](CC(C)C)C(=O)O; Morpholide = C1CN(*)CCO1; NMeA = CN[C@@H](C)C(=O)O; Ac5c = NC1(C(=O)O)CCCC1; Aze = O=C(O)[C@@H]1CCN1; Abu = CC[C@H](N)C(=O)O; Sar = CNCC(=O)O

Tests used:
[1] = molecular target: GDP-bound NRAS wild-type protein (Homo sapiens, UniProt P01111); assay: Binding to NRAS by surface plasmon resonance (SPR), Single Cycle Kinetics; settings: SPR; for NRAS/KRAS (ratio of KD value with respect to NRAS to KD value with respect to KRAS): GDP-bound NRAS wild-type vs GDP-bound KRAS wild-type
Sequence of GDP-bound NRAS wild-type protein (P01111 whole entry): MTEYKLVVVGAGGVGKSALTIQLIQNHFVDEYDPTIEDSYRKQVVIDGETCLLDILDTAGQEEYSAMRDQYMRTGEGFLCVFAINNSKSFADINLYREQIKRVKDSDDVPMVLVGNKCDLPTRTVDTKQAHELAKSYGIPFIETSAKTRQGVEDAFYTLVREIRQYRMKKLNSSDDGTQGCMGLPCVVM

[2] = molecular target: GDP-bound HRAS wild-type protein (Homo sapiens, UniProt P01112); assay: Binding to HRAS by surface plasmon resonance (SPR), Single Cycle Kinetics; settings: SPR; for HRAS/KRAS (ratio of KD value with respect to HRAS to KD value with respect to KRAS): GDP-bound HRAS wild-type vs GDP-bound KRAS wild-type
Sequence of GDP-bound HRAS wild-type protein (P01112 whole entry): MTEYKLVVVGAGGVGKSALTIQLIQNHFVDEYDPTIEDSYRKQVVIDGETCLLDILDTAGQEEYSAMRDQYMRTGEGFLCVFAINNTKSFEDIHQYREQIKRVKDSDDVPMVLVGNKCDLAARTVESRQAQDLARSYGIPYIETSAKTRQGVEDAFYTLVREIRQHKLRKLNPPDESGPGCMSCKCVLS

Compound | NRAS/KRAS (ratio of KD value with respect to NRAS to KD value with respect to KRAS) [1] | HRAS/KRAS (ratio of KD value with respect to HRAS to KD value with respect to KRAS) [2] | also measured
C#CC[C@H]1C(=O)N[C@@H]([C@@H](C)CC)C(=O)N(C)CC(=O)N(C)[C@H]2C/C=C\CCN(C2=O)[C@@H](Cc2ccc(C(F)(F)F)cc2)C(=O)N(C)CC(=O)N[C@@H](CCc2cc(F)c(C(F)(F)F)c(F)c2)C(=O)N2C[C@@H](C)C[C@H]2C(=O)NC2(CC(C)(C)C2)C(=O)N(C)[C@@H](C2CCCC2)C(=O)N(C)[C@H](C(=O)N(C)CC)CC(=O)N1C [PP2075] | A (a compound having 10 or more and less than 20 is denoted as A) | A (a compound having 10 or more and less than 20 is denoted as A) | –
CCO[C@@H]1C[C@H]2C(=O)NC3(CCC3)C(=O)N(C)[C@@H](C3CCCC3)C(=O)N(C)[C@H](C(=O)N3CCOCC3)CC(=O)N(C)[C@@H](CC3CC3)C(=O)N[C@@H]([C@@H](C)CC)C(=O)N(C)CC(=O)N(C)[C@H]3CCCCCN(C3=O)[C@@H](Cc3ccc(C(F)(F)F)cc3)C(=O)N(C)CC(=O)N[C@@H](CCc3cc(F)c(C(F)(F)F)c(F)c3)C(=O)N2C1 [PP0682] | – | – | NRAS/KRAS (ratio of KD value with respect to GDP-bound NRAS wild-type protein to KD value with respect to KRAS) ([1]; KD ratio NRAS/KRAS): B (a compound having 3 or more and less than 10 is denoted as B); HRAS/KRAS (ratio of KD value with respect to GDP-bound HRAS wild-type protein to KD value with respect to KRAS) ([2]; KD ratio HRAS/KRAS): B (a compound having 3 or more and less than 10 is denoted as B)
CCO[C@@H]1C[C@H]2C(=O)N(C)C3(CCC3)C(=O)N(C)[C@@H](C(CC)CC)C(=O)N(C)[C@H](C(=O)N(C)C)CC(=O)N(C)[C@@H](COC)C(=O)N[C@@H]([C@@H](C)CC)C(=O)N(C)CC(=O)N(C)[C@H]3C/C=C\CCN(C3=O)[C@@H](CC3CCCCC3)C(=O)N(C)CC(=O)N[C@@H](CCc3ccc(C(F)(F)F)c(OC)c3)C(=O)N2C1 [PP2335] | A (a compound having 10 or more and less than 20 is denoted as A) | A (a compound having 10 or more and less than 20 is denoted as A) | –
CCCN1C(=O)[C@@H]2CCN2C(=O)[C@H](C)N(C)C(=O)[C@H](CC)NC(=O)[C@H](CC(C)C)N(C)C(=O)C[C@@H](C(=O)N2CCOCC2)N(C)C(=O)[C@H](C2CCCC2)N(C)C(=O)C2(CCCC2)NC(=O)[C@@H]2CCCN2C(=O)[C@H](CCc2ccc(C(F)(F)F)c(Cl)c2)NC(=O)CN(C)C(=O)[C@@H]1Cc1ccc(C(F)(F)F)cc1 [PP0269] ([NMeL][Abu][NMeA][Aze][NPrPhe(4-CF3)][Sar][hPhe(3-Cl-4-CF3)]P[Ac5c][NMeGly(cPent)][NMeD]-Morpholide; lactam N-11) | – | – | NRAS/KRAS (ratio of KD for GDP-bound NRAS wild-type to KD for KRAS) ([1]; KD ratio NRAS/KRAS): C (A compound having a KD ratio of 0.1 or more and less than 3 is denoted as C); HRAS/KRAS (ratio of KD for GDP-bound HRAS wild-type to KD for KRAS) ([2]; KD ratio HRAS/KRAS): B (a compound having 3 or more and less than 10 is denoted as B)
CC[C@H](C)[C@@H]1NC(=O)[C@H](CC)N(C)C(=O)C[C@@H](C(=O)N(C)C)N(C)C(=O)[C@H](C2CCCC2)N(C)C(=O)C2(CCC2)NC(=O)[C@@H]2COCCN2C(=O)[C@H](CCc2cc(F)c(C(F)(F)F)c(F)c2)NC(=O)CN(C)C(=O)[C@H](Cc2ccc(C(F)(F)F)cc2)N2CC/C=C\C[C@@H](C2=O)N(C)C(=O)CN(C)C1=O [PP1138] | – | – | NRAS/KRAS (ratio of KD value with respect to NRAS to KD value with respect to KRAS) ([1]; KD ratio): A (a compound having 10 or more and less than 20 is denoted as A); HRAS/KRAS (ratio of KD value with respect to HRAS to KD value with respect to KRAS) ([2]; KD ratio): A (a compound having 10 or more and less than 20 is denoted as A)
C#CC[C@H]1C(=O)N[C@@H]([C@@H](C)CC)C(=O)N(C)CC(=O)N(C)[C@H]2C/C=C\CCN(C2=O)[C@@H](Cc2ccc(C(F)(F)F)cc2)C(=O)N(C)CC(=O)N[C@@H](CCc2cc(F)c(C(F)(F)F)c(F)c2)C(=O)N2C[C@@H](C)C[C@H]2C(=O)NC2(CCC2)C(=O)N(C)[C@@H](C2CCCC2)C(=O)N(C)[C@H](C(=O)N(C)CCC)CC(=O)N1C [PP2077] | A (a compound having 10 or more and less than 20 is denoted as A) | A (a compound having 10 or more and less than 20 is denoted as A) | –
C=CCN1CC(=O)N(C)[C@H]2C/C=C\CCN(C2=O)[C@@H](Cc2ccc(C(F)(F)F)cc2)C(=O)N(C)CC(=O)N[C@@H](CCc2cc(F)c(C(F)(F)F)c(F)c2)C(=O)N2C[C@H](OCC)C[C@H]2C(=O)NC2(CC(C)(C)C2)C(=O)N(C)[C@@H](C2CCCC2)C(=O)N(C)[C@H](C(=O)N(C)C)CC(=O)N(C)[C@@H](CCC)C(=O)N[C@@H]([C@@H](C)CC)C1=O [PP2102] | A (a compound having 10 or more and less than 20 is denoted as A) | A (a compound having 10 or more and less than 20 is denoted as A) | –
